Results as given in PubChem BioAssay (NCI).
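96-well plates; 48 h exposure; 5 concentrations. Endpoints by linear interpolation between flanking doses. Not reached: highest tested concentration assigned. TGI denotes the concentration required for complete inhibition of growth.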

Key:
Assay in all cases: inhibition of tumour cell growth, NCI panel, 48 h
SW-620 colon = tested on: SW-620 colon
MCF7 breast = tested on: MCF7 breast
UACC-62 melanoma = tested on: UACC-62 melanoma
UO-31 renal = tested on: UO-31 renal
COLO 205 colon = tested on: COLO 205 colon
SF-539 CNS = tested on: SF-539 CNS
HL-60(TB) leukemia = tested on: HL-60(TB) leukemia
SNB-19 CNS = tested on: SNB-19 CNS
HOP-62 NSCLC = tested on: HOP-62 NSCLC
OVCAR-8 ovarian = tested on: OVCAR-8 ovarian
HCT-116 colon = tested on: HCT-116 colon
CCRF-CEM leukemia = tested on: CCRF-CEM leukemia
EKVX NSCLC = tested on: EKVX NSCLC
SF-268 CNS = tested on: SF-268 CNS
OVCAR-5 ovarian = tested on: OVCAR-5 ovarian
SF-295 CNS = tested on: SF-295 CNS
KM12 colon = tested on: KM12 colon
SK-OV-3 ovarian = tested on: SK-OV-3 ovarian
MOLT-4 leukemia = tested on: MOLT-4 leukemia
SK-MEL-2 melanoma = tested on: SK-MEL-2 melanoma

Structure (SMILES) | TGI (SW-620 colon) [µM] | TGI (MCF7 breast) [µM] | TGI (UACC-62 melanoma) [µM] | TGI (UO-31 renal) [µM] | TGI (COLO 205 colon) [µM] | TGI (SF-539 CNS) [µM] | TGI (HL-60(TB) leukemia) [µM] | TGI (SNB-19 CNS) [µM] | TGI (HOP-62 NSCLC) [µM] | TGI (OVCAR-8 ovarian) [µM] | TGI (HCT-116 colon) [µM] | TGI (CCRF-CEM leukemia) [µM] | TGI (EKVX NSCLC) [µM] | TGI (SF-268 CNS) [µM] | TGI (OVCAR-5 ovarian) [µM] | TGI (SF-295 CNS) [µM] | TGI (KM12 colon) [µM] | TGI (SK-OV-3 ovarian) [µM] | TGI (MOLT-4 leukemia) [µM] | TGI (SK-MEL-2 melanoma) [µM]
CC(=O)O[C@H]1[C@@H](OC(C)=O)C(C)(C)/C=C/[C@H](C)C(=O)[C@@]2(OC(C)=O)C[C@@](C)(OC(C)=O)[C@H](OC(C)=O)[C@@H]2[C@H]2OC(=O)CC[C@@]2(OC(=O)c2ccccc2)[C@@H]1OCC(C)C | > 100 | > 100 | > 100 | > 100 | > 100 | > 100 | > 100 | > 100 | > 100 | > 100 | 65.2 | > 100 | > 100 | > 100 | > 100 | > 100 | > 100 | > 100 | > 100 | > 100
NC1(C(=O)O)CCCC1 | > 625 | > 625 | > 625 | > 625 | > 625 | > 625 | > 625 | > 99.1 | > 625 | > 625 | > 625 | > 625 | > 625 | > 370 | > 625 | > 625 | > 625 | > 625 | > 625 | > 625
